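All cell lines were grown in 96-well plates and treated with compound for 48 hours. GI50 is the concentration that inhibits growth by half. TGI marks complete inhibition of growth.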 Where a SMILES comes first, the peptide text is derived from it. [ ]: non-standard residue; d: D form. The star is where a group is joined. ξ: configuration not given here. Boc = CC(C)(C)OC(=O)*; ξV = CC(C)C(N)C(=O)O; OBn = c1ccc(CO*)cc1
Key:
Assay in all cases: NCI tumour cell line growth inhibition, 48 h
[1] = tested on: MDA-MB-231 breast
[2] = tested on: U251 CNS
[3] = tested on: SF-295 CNS
[4] = tested on: HT29 colon
[5] = tested on: M14 melanoma
[6] = tested on: K-562 leukemia
[7] = tested on: DU-145 prostate
[8] = tested on: ACHN renal
[9] = tested on: A549 NSCLC
[10] = tested on: RXF 393 renal
[11] = tested on: NCI-H226 lung
[12] = tested on: MALME-3M melanoma
[13] = tested on: RPMI-8226 leukemia
[14] = tested on: SNB-75 CNS
[15] = tested on: SN12C renal
[16] = tested on: MCF7 breast
[17] = tested on: KM12 colon
[18] = tested on: T-47D breast
[19] = tested on: MDA-MB-435
[20] = tested on: NCI-H460 lung
[21] = tested on: HOP-62 NSCLC
[22] = tested on: A498 renal
[23] = tested on: LOX IMVI melanoma
[24] = tested on: EKVX NSCLC
[25] = tested on: NCI-H522 lung
[26] = tested on: MOLT-4 leukemia
[27] = tested on: SK-MEL-5 melanoma
[28] = tested on: SF-268 CNS
[29] = tested on: HCT-15 colon
[30] = tested on: HS 578T breast
[31] = tested on: IGROV1 ovarian
[32] = tested on: HOP-92 NSCLC
[33] = tested on: UACC-62 melanoma
[34] = tested on: OVCAR-8 ovarian
[35] = tested on: NCI-H23 lung
[36] = tested on: TK-10 renal
[37] = tested on: OVCAR-5 ovarian
[38] = tested on: HL-60(TB) leukemia
[39] = tested on: BT-549 breast
[40] = tested on: PC-3 prostate
[41] = tested on: OVCAR-4 ovarian
[42] = tested on: SW-620 colon
[43] = tested on: UO-31 renal
[44] = tested on: SK-MEL-2 melanoma
[45] = tested on: CAKI-1 renal
[46] = tested on: UACC-257 melanoma
[47] = tested on: OVCAR-3 ovarian
[48] = tested on: SNB-19 CNS
[49] = tested on: SK-OV-3 ovarian
[50] = tested on: SK-MEL-28 melanoma
[51] = tested on: SF-539 CNS
[52] = tested on: HCC-2998 colon
[53] = tested on: 786-0 renal
[54] = tested on: HCT-116 colon
[55] = tested on: COLO 205 colon
[56] = tested on: NCI/ADR-RES ovarian

**Q.** What does the source list for `CCCCCCCCCCCCOC1C(CNCC2OC3OC(C)(C)OC3C2NC(=O)Nc2ccc(C(=O)OCC)cc2)OC2OC(C)(C)OC21` (centres undefined)?
**A.** GI50 [1]: 1.77 µM; TGI [1]: 3.33 µM; GI50 [2]: 1.94 µM; TGI [2]: 3.71 µM; GI50 [3]: 6.31 µM; TGI [3]: 20 µM; GI50 [4]: 1.71 µM; TGI [4]: 3.56 µM; GI50 [5]: 1.77 µM; TGI [5]: 3.38 µM; GI50 [6]: 2.95 µM; TGI [6]: > 100 µM; GI50 [7]: 1.89 µM; TGI [7]: 3.73 µM; GI50 [8]: 3.43 µM; TGI [8]: 10.9 µM; GI50 [9]: 2.23 µM; TGI [9]: 4.76 µM; GI50 [10]: 2.73 µM; TGI [10]: 4.8 µM; GI50 [11]: 6.23 µM; TGI [11]: 22.7 µM; GI50 [12]: 8.99 µM; TGI [12]: 29.1 µM; GI50 [13]: 2.13 µM; TGI [13]: 4.53 µM; GI50 [14]: 5.52 µM; TGI [14]: 21.1 µM; GI50 [15]: 1.96 µM; TGI [15]: 3.74 µM; GI50 [16]: 1.35 µM; TGI [16]: 2.92 µM; GI50 [17]: 1.96 µM; TGI [17]: 3.69 µM; GI50 [18]: 2.68 µM; TGI [18]: 7.1 µM; GI50 [19]: 1.9 µM; TGI [19]: 3.8 µM; GI50 [20]: 2 µM; TGI [20]: 3.87 µM; GI50 [21]: 3.55 µM; TGI [21]: 13.5 µM; GI50 [22]: 12.8 µM; TGI [22]: 25.5 µM; GI50 [23]: 1.99 µM; TGI [23]: 3.92 µM; GI50 [24]: 6.08 µM; TGI [24]: 18.9 µM; GI50 [25]: 2.04 µM; TGI [25]: 3.78 µM; GI50 [26]: 3.39 µM; TGI [26]: 8.43 µM; GI50 [27]: 2.05 µM; TGI [27]: 4.13 µM; GI50 [28]: 1.63 µM; TGI [28]: 3.24 µM; GI50 [29]: 2.46 µM; TGI [29]: 6.14 µM; GI50 [30]: 1.67 µM; TGI [30]: 3.76 µM; GI50 [31]: 2.7 µM; TGI [31]: 7.37 µM; GI50 [32]: 1.84 µM; TGI [32]: 3.92 µM; GI50 [33]: 3.39 µM; TGI [33]: 12.2 µM; GI50 [34]: 2.16 µM; TGI [34]: 4.3 µM; GI50 [35]: 8.34 µM; TGI [35]: 21.5 µM; GI50 [36]: 4.13 µM; TGI [36]: 15.2 µM; GI50 [37]: 4.18 µM; TGI [37]: 17 µM; GI50 [38]: 2.65 µM; TGI [38]: 5.9 µM; GI50 [39]: 5.44 µM; TGI [39]: 19.8 µM; GI50 [40]: 2.21 µM; TGI [40]: 4.39 µM; GI50 [41]: 1.87 µM; TGI [41]: 4.25 µM; GI50 [42]: 1.75 µM; TGI [42]: 3.29 µM; GI50 [43]: 3.96 µM; TGI [43]: 13.8 µM; GI50 [44]: 13.4 µM; TGI [44]: 29.7 µM; GI50 [45]: 6.74 µM; TGI [45]: 19.8 µM; GI50 [46]: 5.05 µM; TGI [46]: 16.2 µM; GI50 [47]: 3.41 µM; TGI [47]: 11.5 µM; GI50 [48]: 13.7 µM; TGI [48]: 27.7 µM; GI50 [49]: 10.4 µM; TGI [49]: 23.3 µM; GI50 [50]: 1.97 µM; TGI [50]: 4.3 µM; GI50 [51]: 1.79 µM; TGI [51]: 3.52 µM; GI50 [52]: 1.8 µM; TGI [52]: 3.23 µM; GI50 [53]: 3.29 µM; TGI [53]: 11.5 µM; GI50 [54]: 1.72 µM; TGI [54]: 3.14 µM; GI50 [55]: 1.99 µM; TGI [55]: 3.76 µM; GI50 [56]: 2.19 µM; TGI [56]: 4.35 µM

**Q.** With `CC(C)C(NC(=O)CNC(=O)OC(C)(C)C)C(=O)NCC(=O)OCc1ccccc1` (stereo not drawn) (Boc-Gly-[ξV]-Gly-OBn) as the molecule, how does the GI50 [54] read?
**A.** 27.3 µg/mL

**Q.** And the TGI [54]?
**A.** 98.5 µg/mL

From PubChem BioAssay (NCI)
